These are literature values, as cited in patent US20140234410A1, “COMBINATION PRODUCTS” (SIGMOID PHARMA LTD., priority 2004, published 2014).

The structures appear in SMILES notation.

For series [1] the following is noted: in vivo.
In series [2] the test system is thrombocythemia. Conditions: co-administrated with a small dose of aspirin; people with thrombocythemia.
For series [3] the following is noted: in vivo. This is another data set of the same source.
The conditions of series [4]: adults.
Series [5] relates to cytochrome P450.
For series [6], the system named is tumour growth. The following applies: simultaneous administration with R-verapamil.

In the case of `COc1ccc2c(c1)[C@]13CCCC[C@@H]1[C@H](C2)N(C)CC3` [Dextromethorphan], the “adverse effects, share of people” value in series [1] is on record as “less than 1%”.

As for `NC(=O)NO` [Hydroxyurea], the solubility in water result was “freely soluble”. Moreover, the “preventing serious bleeding and other complications versus anagrelide hydrochloride” value in series [2] is “more effective”.

For `COCCOC(=O)C1=C(C)NC(C)=C(C(=O)OC(C)C)C1c1cccc([N+](=O)[O-])c1` (stereo not shown) [Nimodipine], the solubility in water entry is “practically insoluble”.

As for `Cn1c(=O)c2[nH]cnc2n(C)c1=O` [Theophylline], the “concentrations with anti-inflammatory and immunostimulatory effect” value in series [3] was 5 to 10 mg/L. Besides, the biological half life in series [4] is under 6 hours.

For `CN/C(=N/CCSCc1nc[nH]c1C)NC#N` [cimetidine], the bioavailability of nimodipine result in series [5] (effect of the co-administered drug) is listed as “approximate doubling”.

In the case of `CN(CCOc1ccc(CC2SC(=O)NC2=O)cc1)c1ccccn1` (stereo not shown) [rosiglitazone, Rosiglitazone], the “solubility as a function of pH” value (physiological range) is “decreases with increasing pH”.

For the molecule `CC/C(=C(\c1ccccc1)c1ccc(OCCN(C)C)cc1)c1ccccc1` [tamoxifen, Tamoxifen], the tumour growth result in series [6] is listed as “significantly decreases”.

Turning to `CCCC(CCC)C(=O)O` [valproic acid], the “plasma concentrations of nimodipine” value in series [5] (two drugs administered in combination) is given as “increased”.
